In patent US20200071667A1, “COMPOSITION COMPRISING GLYCYRRHIZIN FOR INDUCING DIFFERENTIATION INTO MYELOID-DERIVED SUPPRESSOR CELL FROM MYELOID CELL” (Konkuk University Glocal Industry-Academic Collabo, priority 2018, published 2020):

Columns and labels:
[1] = tested on: tumor necrosis factor (TNF)-α; assay: ELISA of TNF-α in BALF and blood of mice with LPS-induced sepsis; format: in vivo, C57BL/6 mice; settings: 12 hours after final injection
Experimental: (§1) Specifically, 0.1 ml of phosphate buffered saline (PBS; Gibco, Grand Island, N.Y., USA) was injected intraperitoneally (i.p.) into mice of the control, and 12 hours after the injection, 0.1 ml of PBS was intraperitoneally injected again into each mouse. 1 μg of LPS (Escherichia coli serotype 0111:B4, Sigma-Aldrich, St. Louis, Mo., USA) dissolved in 0.1 ml of PBS was injected intraperitoneally (i.p.) into mice of the LPS group to induce sepsis, and 12 hours after sepsis induction, 0.1 ml of PBS was intraperitoneally injected into each mouse. […]
(§2) Specifically, for the analysis of bronchoalveolar lavage fluid and blood, 12 hours after the final injection into mice of each experimental group of Example 1, 1 μg/g of Zoletil®50 (a combined preparation of tiletamine and zolazepam, Virbac Laboratories, Carros, France) as an anesthetic and 0.1 U/g of heparin sodium (Green Cross Co., Yongin, Korea) were intraperitoneally injected into each mouse to minimize the effect of aches or pains on immunity. […] The levels of tumor necrosis factor (TNF)-α, IL-6, and IL-1β in BALF and blood were measured using a mouse enzyme-linked ELISA kit (R&D Systems Inc., Minneapolis, Minn., USA) according to the manufacturer's instructions. Samples collected from each group were analyzed in triplicate.

[2] = tested on: Toll-like receptor 4 (TLR4); assay: Immunohistochemical staining for TLR4 in heart or lung tissues; format: in vivo, C57BL/6 mice; settings: heart and lungs
Experimental: Specifically, 0.1 ml of phosphate buffered saline (PBS; Gibco, Grand Island, N.Y., USA) was injected intraperitoneally (i.p.) into mice of the control, and 12 hours after the injection, 0.1 ml of PBS was intraperitoneally injected again into each mouse. 1 μg of LPS (Escherichia coli serotype 0111:B4, Sigma-Aldrich, St. Louis, Mo., USA) dissolved in 0.1 ml of PBS was injected intraperitoneally (i.p.) into mice of the LPS group to induce sepsis, and 12 hours after sepsis induction, 0.1 ml of PBS was intraperitoneally injected into each mouse. 1 μg of LPS and 100 mg/kg of ammonium glycyrrhizinate (GR; Abcam Inc., Cambridge, UK) dissolved in 0.1 ml of PBS were injected intraperitoneally (i.p.) into mice of the LPS+GR group, and 12 hours after the injection, 100 mg/kg of ammonium glycyrrhizinate dissolved in 0.1 ml of PBS was intraperitoneally injected into each mouse.
It was determined whether TLR4 expression levels were inhibited when mice with sepsis induced by LPS were treated with glycyrrhizin. The expression level of Toll-like receptor 4 (TLR4) was confirmed using immunohistochemistry and western blot analysis.
Specifically, for immunohistochemical staining for TLR4, the heart or lung tissues of mice of each experimental group of Example 1 were cut to 4 μm after deparaffinization treatment. […] TLR4 intensity was quantified using NIH Image J software.

IL-6 = assay: ELISA of IL-6 in BALF and blood of mice with LPS-induced sepsis; format: in vivo, C57BL/6 mice; settings: 12 hours after final injection
Experimental: as §1, §2

myeloid cells = assay: Differentiation of LPS-treated mouse myeloid cells treated with glycyrrhizin (in vitro), flow cytometric analysis; format: cell-based, C57BL/6 mice; settings: LPS 1 ng/ml, GR 100 μg/ml, incubation 3 days
Experimental: To verify the in vivo experimental results of Example <2-1>, flow cytometric analysis was used to confirm whether differentiation into CD11b+Gr1 myeloid cells or MDSCs from myeloid cells was induced when myeloid cells of mice were treated with glycyrrhizin (GR).
Specifically, myeloid cells were obtained by washing the femoral region of each of 8-week-old male C57BL/6 male mice without specific pathogens with a Roswell Park Memorial Institute (RPMI) 1640 medium in a sterile state using a syringe with a 27-gauge needle. Red blood cells (RBCs) of the collected bone marrow were lysed with an erythrolysis solution, and then the remaining cells were treated with 10% fetal bovine serum, 40 ng/ml of IL-6, and 40 ng/ml of granulocyte-macrophage colony stimulating factor at 37° C. Thereafter, only 1 ng/ml of LPS was treated (LPS group) or 100 μg/ml of GR was additionally treated (LPS+GR group) after LPS treatment. The control was treated with 0.1 ml of PBS. After incubation for 3 days, the same flow cytometric analysis as in Example <2-1> was performed to measure the absolute number of myeloid cells of each group, and then all the obtained data was analyzed using FlowJo software (Tree Star Inc., Ashland, Oreg., USA) to determine the ratio of MDSCs to CD11b+Gr1 myeloid cells.

IL-1β = assay: ELISA of IL-1β in BALF and blood of mice with LPS-induced sepsis; format: in vivo, C57BL/6 mice; settings: 12 hours after final injection
Experimental: as §1, §2

[3] = parenthesised line under cell number

## lipopolysaccharide [LPS]
[1]; BALF
  TNF-α: 284.20 ± 56.96 pg/µL
[1]; Blood
  TNF-α: 98.78 ± 9.17 pg/µL
[2]
  expression level of TLR4 by immunohistochemistry: significantly higher in both the heart and the lungs compared to the control
IL-6; BALF
  IL-6: 650.26 ± 11.02 pg/µL
IL-6; Blood
  IL-6: 172.63 ± 14.22 pg/µL
Myeloid cells
  CD11b + Gr1 myeloid cells (number of cells): 16,500 ± 400
  MDSCs (number of cells): 5,200 ± 300
  MDSCs/CD11b + Gr1 myeloid cells × 100 (%): 32.45 ± 2.69%
  Total cell count: 47,300 ± 1,200
Myeloid cells; [3]
  CD11b + Gr1 myeloid cells (value in parentheses): (34.61 ± 4.51)
  MDSCs (value in parentheses): (11.23 ± 1.25)
IL-1β; BALF
  IL-1β: 164.82 ± 17.81 pg/µL
IL-1β; Blood
  IL-1β: 126.28 ± 7.61 pg/µL
